The text below walks through data of patent publication US20210379153A1, “COMBINATION THERAPIES COMPRISING SIRP ALPHA-BASED CHIMERIC PROTEINS” (Shattuck Labs, Inc., priority 2018, published 2021).

Usually EC50 stands for the midpoint of the concentration-response curve.

Series [1] deals with tumors. The series is described as follows: In vivo tumor model, SIRPα-Fc-LIGHT with anti-PD-1 (Example 15). Also noted: species or system mice. The settings on record: combination with anti-PD-1 antibody. Here is the method: The in vivo ability of combinations of the SIRPα-Fc-LIGHT chimeric protein with anti-PD-1 antibodies to target and treat tumors was determined. (FIG. 26A and FIG. 26B) FIG. 26C and FIG. 26D include data relevant to the graphs of FIG. 26A and FIG. 26B.

The test system of series [2] is tumors. The series is described as follows: In vivo tumor model, SIRPα-Fc-OX40L with checkpoint antibodies (Example 14). Also noted: species or system mice. The settings on record: chimeric protein alone. The protocol: The in vivo ability of combinations of the SIRPα-Fc-OX40L chimeric protein with anti-CTLA-4 antibodies or the SIRPα-Fc-OX40L chimeric protein with anti-PD-1 antibodies to target and treat tumors was determined.

Series [3] concerns IRF-inducible ISG reporter in RAW264.7 cells. Description: RAW264.7-ISG interferon reporter cells co-cultured with A20 lymphoma cells. The class given is cell-based, mouse. The settings on record: monotherapy; 50 mg/mL proteins, 1 mg/mL anti-mCD20; 24 hours. The protocol: FIG. 8D: Macrophage:Toledo lymphoma co-cultures were harvested 2 hours into phagocytosis assays in the presence of rituximab ([…]), SIRPα-Fc-CD40L ([…]), or the combination of both agents. Macrophages were isolated by CD11b+ FACS, RNA was prepared, cDNA synthesized, and gene expression (IFNa1, IFNb1, CD80, and CD86) assessed by qRT-PCR. Fold change was calculated using DDCT and values obtained from the housekeeping gene ACTB, and the corresponding values from untreated samples. […] After 2 hours, co-cultures were isolated from tissue culture vessels and were stained with a fluorescently conjugated CD11b antibody to discriminate macrophages. Cells were then assessed by flow cytometry for the co-localization of fluorescent signal from both cells types. […] After 24-hours type I interferon induced luminescence was assessed using a luminometer. The maximum luminescence (RLU) from each experiment was set to 1, and all other samples were normalized accordingly. […]
Additionally, a macrophage reporter system was used to detect activation. […] After 24 hours, culture supernatant was collected and assessed for luciferase activity, which would indicate activation of a type I interferon response in the RAW-ISG reporter cells. […]

Another series addresses FcγR-IIIb (Homo sapiens, UniProt O75015). The series is described as follows: SPR binding to Fc receptor FcγR-IIIb. The text has this: (§1) The extracellular domain (ECD) of SIRPα and the ECD of CD40L were fused via an antibody Fc domain to generate SIRPαECD-Fc-CD40LECD chimeric proteins. When human proteins were used, the chimeric protein is referred to as hSIRPα-Fc-CD40L; when murine proteins were used, the chimeric protein is referred to as and mSIRPα-Fc-CD40L. Generically, the chimeric protein is referred to as SIRPα-Fc-CD40L. […] Mammalian cells were then transfected with the hSIRPα-Fc-CD40L expressing construct, and the secreted protein was purified from conditioned media by affinity chromatography. The purified protein was then analyzed for the presence of each individual domain by Western blotting using anti-SIRPα, anti-Fc, and anti-CD40L antibodies (FIG. 3A, bottom). […] The reduced and deglycosylated form of the protein migrated at the predicted monomeric molecular weight of 90.1 kDa. […] Next, binding affinities for SIRPα-Fc-CD40L to recombinant CD47, CD40, or Fc receptors were evaluated by surface plasmon resonance (SPR). […] Finally, to confirm that SIRPα-Fc-CD40L interacted with native CD47 and CD40 in a similar manner to recombinant CD47 and CD40, CHOK1-hCD47 and CHOK1-hCD40 reporter cell lines were developed (FIG. 3F). […] A functional ELISA evaluated whether SIRPα-Fc-CD40L could outcompete a commercially available single-sided SIRPα-Fc control for binding to recombinant CD47 (FIG. 3H).
On the technique in general: In SPR one partner is held on a chip, and binding of the other changes the refractive index at the surface.

The target of another series is T1, FcγR-IIb (Homo sapiens, UniProt P31994).
T1 sequence (P31994 43-310): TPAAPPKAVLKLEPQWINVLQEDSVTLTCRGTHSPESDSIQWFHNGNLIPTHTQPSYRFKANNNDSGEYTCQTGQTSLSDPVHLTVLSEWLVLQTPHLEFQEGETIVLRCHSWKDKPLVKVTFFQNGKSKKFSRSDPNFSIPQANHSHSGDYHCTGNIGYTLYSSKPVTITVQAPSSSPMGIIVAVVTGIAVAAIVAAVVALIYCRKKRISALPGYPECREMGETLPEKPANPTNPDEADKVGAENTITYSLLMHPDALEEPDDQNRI
Description: SPR binding to Fc receptor FcγR-IIb.
Text: as §1

Series [4] is described as follows: Repeat-dose safety and activity study in cynomolgus macaques. It is filed as in vivo. The settings on record: IV infusion weekly for five weeks; 0.1, 1, 10 and 40 mg/kg. Here is the method:
FIG. 21 is a graph showing cynomolgus macaques that were treated with vehicle, or 0.1, 1, 10, and 40 mg/kg of SIRPα-Fc-CD40L. Blood chemistry analysis assessed peripheral erythrocyte counts, hemoglobin levels, and hematocrit. In addition, the fold-change in lymphocyte count from pre-dose to 24 hours post-dose is shown.
The experiments of this example tested the safety and activity of the human SIRPα-Fc-CD40L chimeric protein following repeat doses in cynomolgus macaques. Briefly, naïve cynomolgus macaques were administered the human SIRPα-Fc-CD40L chimeric protein by intravenous infusion every week, for five consecutive weeks, at doses of 0.1, 1, 10 and 40 mg/kg. Standard hematology and clinical chemistry parameters were collected before and after each dose.
Receptor occupancy was evaluated on circulating CD40+ lymphocytes.

Series [5] concerns CD8+ T cell-depleted PBMC. Description: IL-2 ELISpot of CD8+ T cell-depleted PBMC. The class given is cell-based, human. The settings on record: day 8 of the culture. Here is the method:
(§2) Here, proliferation was assessed via [^3H]-Thymidine incorporation on days 5, 6, and 7. The order of samples (in triplicate) along the X-axis is media only, KLH, Exenatide, 0.3 nm SIRPα-Fc-CD40L, 3 nm SIRPα-Fc-CD40L, 30 nm SIRPα-Fc-CD40L and 300 nm SIRPα-Fc-CD40L. […] Here, proliferation was assessed by ELISpot. The order of samples (in triplicate) along the X-axis is media only, KLH, Exenatide, 0.3 nm SIRPα-Fc-CD40L, 3 nm SIRPα-Fc-CD40L, 30 nm SIRPα-Fc-CD40L and 300 nm SIRPα-Fc-CD40L.
(§3) The observation that SIRPα-Fc-CD40L stimulated CD40 signaling prompted investigation of other cellular functions that depend upon CD40 signaling. CD8+ T cell-depleted PBMC were isolated from a total of 33-50 different human donors and cultured in the presence of a dose-titration of hSIRPα-Fc-CD40L (FIG. 6A and FIG. 6B).

In a further series the target is FcγR-Ia (Homo sapiens, UniProt P12314). Description: SPR binding to Fc receptor FcγR-Ia. The text has this: Scale is shown and yellow arrows correspond with each identified monomer. A schematic of the hexamer species is shown to the right, depicting dimerization of the Fc domain and trimerization of the CD40L domain. […] Recombinant hSIRPα-Fc, hCD40L-Fc, and hIgG1 were used as positive controls. […] In both panels, the CHOK1 Parental is on the left and the CHOK1/hCD47 is on the right. […] For both graphs, the CHOK1 Parental is on the bottom. […] In this figure, the control is the top curve, the SIRPα-Fc-CD40L is the middle curve, and the anti-CD47 is the bottom curve.
FcγR-Ia, sequence (P12314 16-374): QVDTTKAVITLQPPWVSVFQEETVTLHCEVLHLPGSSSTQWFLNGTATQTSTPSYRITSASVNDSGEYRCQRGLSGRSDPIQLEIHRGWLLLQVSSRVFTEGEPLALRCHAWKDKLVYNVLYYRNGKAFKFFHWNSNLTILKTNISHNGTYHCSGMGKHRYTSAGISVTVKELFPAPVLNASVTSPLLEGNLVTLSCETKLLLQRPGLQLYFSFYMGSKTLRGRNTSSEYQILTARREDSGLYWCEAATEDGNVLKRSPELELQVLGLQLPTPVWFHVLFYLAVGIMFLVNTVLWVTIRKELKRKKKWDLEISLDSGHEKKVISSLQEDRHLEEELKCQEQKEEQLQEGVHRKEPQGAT
The extracellular domain (ECD) of SIRPα and the ECD of CD40L were fused via an antibody Fc domain to generate SIRPαECD-Fc-CD40LECD chimeric proteins. When human proteins were used, the chimeric protein is referred to as hSIRPα-Fc-CD40L; when murine proteins were used, the chimeric protein is referred to as and mSIRPα-Fc-CD40L. […] The purified protein was then analyzed for the presence of each individual domain by Western blotting using anti-SIRPα, anti-Fc, and anti-CD40L antibodies (FIG. 3A, bottom). […] Next, binding affinities for SIRPα-Fc-CD40L to recombinant CD47, CD40, or Fc receptors were evaluated by surface plasmon resonance (SPR). […] A functional ELISA evaluated whether SIRPα-Fc-CD40L could outcompete a commercially available single-sided SIRPα-Fc control for binding to recombinant CD47 (FIG. 3H).

Series [6] concerns CD8+ T cell-depleted PBMC. The series is described as follows: Proliferation of CD8+ T cell-depleted PBMC ([3H]-thymidine). The class given is cell-based, human. Conditions: 0.3, 3, 30, or 300 nM; 7-day culture; 33-50 donors. The protocol: as §2, §3
Series [7] addresses T2, recombinant mouse CD47 (mouse) (UniProt Q61735).
T2 sequence (looked up): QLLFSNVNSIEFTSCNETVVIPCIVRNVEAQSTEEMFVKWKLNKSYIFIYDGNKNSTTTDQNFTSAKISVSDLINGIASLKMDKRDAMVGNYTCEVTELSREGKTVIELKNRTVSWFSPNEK
The series is described as follows: dual ELISA: coat mCD47-Fc, detect mCD40-His, tertiary anti-his-HRP, OD450. A general note: ELISA stands for enzyme-linked immunosorbent assay.

Series [8] relates to IFNα1, IFNβ1, CD80 and CD86 expression in macrophages. Description: qRT-PCR of macrophages sorted from macrophage:Toledo lymphoma co-cultures. The settings on record: monotherapy; 2 hours. Also noted: macrophage activation and type I interferon gene expression: dose or concentration left out as unconfirmed. It is filed as cell-based, human. Here is the method:
FIG. 8D: Macrophage:Toledo lymphoma co-cultures were harvested 2 hours into phagocytosis assays in the presence of rituximab ([…]), SIRPα-Fc-CD40L ([…]), or the combination of both agents. Macrophages were isolated by CD11b+ FACS, RNA was prepared, cDNA synthesized, and gene expression (IFNa1, IFNb1, CD80, and CD86) assessed by qRT-PCR. Fold change was calculated using DDCT and values obtained from the housekeeping gene ACTB, and the corresponding values from untreated samples. […] After 2 hours, co-cultures were isolated from tissue culture vessels and were stained with a fluorescently conjugated CD11b antibody to discriminate macrophages. Cells were then assessed by flow cytometry for the co-localization of fluorescent signal from both cells types. Identical assays were set up where macrophages were pre-incubated for 1 hour with 20 μg/mL of a commercially available Fc block cocktail or with 20 μg/mL of a CD40 blocking antibody or with 5 μg/mL of a calreticulin blocking peptide. FIG. 8G: RAW 264.7-Lucia ISG cells were cultured with A20 lymphoma cells in the presence of […] of mSIRPα-Fc-CD40L, recombinant Fc-mCD40L, mSIRPα-Fc, or their combination, 1 mg/mL anti-mCD20, or the combination of mSIRPα-Fc-CD40L and anti-mCD20. After 24-hours type I interferon induced luminescence was assessed using a luminometer. The maximum luminescence (RLU) from each experiment was set to 1, and all other samples were normalized accordingly. Values from repeat experiments are shown.
RNA was prepared from macrophages isolated using fluorescent activated cell sorting (FACS) from SIRPα-Fc-CD40L/Rituximab treated co-cultures macrophages and Toledo lymphoma cells. The RNA was assessed by qRT-PCR for expression of IFNα1 and IFNβ1, and the macrophage activation markers CD80 and CD86.
On the technique in general: Quantitative PCR measures a nucleic acid by following its amplification.

Several values for one entry are separate records, joined by “and”; a condition that tells them apart may be missing. Equal values may be shown once.

FcγR-IIIb, sequence (O75015 17-200): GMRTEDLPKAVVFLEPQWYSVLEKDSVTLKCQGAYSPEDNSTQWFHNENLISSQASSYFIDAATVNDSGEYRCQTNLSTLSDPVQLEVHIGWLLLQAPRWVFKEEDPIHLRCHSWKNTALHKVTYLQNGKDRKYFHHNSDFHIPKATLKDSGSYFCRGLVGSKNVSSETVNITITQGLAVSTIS

With “SIRPα(CD172a)-Fc-LIGHT: ECD of SIRPα, hinge-CH2-CH3 Fc linker and ECD of LIGHT (SEQ ID NO: 63)”, in the series on tumors [1], the survival result is “any survivors by the twenty-fifth day” and the tumor size entry was “most effective in reducing tumor size”. For the same substance, the “rejection of secondary tumor challenge” value in the series on tumors [1] (no additional treatment) worked out at 66.6%.

With “SIRPα(CD172a)-Fc-OX40L: ECD of SIRPα and ECD of OX40L fused via an antibody Fc domain (SEQ ID NO: 61)”, in the series on tumors [2], the survival entry is listed as “any survivors by the sixteenth day” and the tumor size result is “effective in reducing tumor size”.

For the substance “SIRPα-Fc: recombinant single-sided SIRPα-Fc protein [reference compound]”, in [3], the “interferon gene-driven luciferase activity (type I IFN response)” value is “no significant signal”.

Take “hSIRPα-Fc-CD40L: chimeric protein: ECD of human SIRPα fused via an antibody Fc domain to ECD of human CD40L (SEQ ID NO: 60)”: the binding result with FcγR-IIIb, with FcγR-IIb and in the series with FcγR-Ia was “undetectable binding” each time. For the same substance, the hemolysis result in series [4] is recorded as “no evidence”. Moreover, in [4], the thrombocytopenia result is listed as “no evidence”. Further, the “number of IL-2-secreting PBMC” value in series [5] was “dose-dependent increase”. In addition, in series [6], the “proliferation of human PBMC” value is reported as “dose-dependent proliferation”.

For the substance “mSIRPα-Fc-CD40L chimeric protein (murine SIRPα ECD - Fc - murine CD40L ECD) (from UniProt P97797 32-373; P27548 47-260) (Fc fusion)”, the concentration for a half-maximal effect (EC50) in series [7] was 7.37 nM and 8.73 nM.

Regarding “rituximab: anti-CD20 antibody [reference compound]”, the “macrophage activation and type I interferon gene expression” value in series [8] is “induced macrophage activation and the expression of type I interferon genes”.
